Test results reported in ChEMBL document CHEMBL1134173, “FR131535, a novel water-soluble echinocandin-like lipopeptide: synthesis and biological properties” (Bioorg Med Chem Lett, 2001).
Converted amounts (≈) assume the structure as drawn. Numbered stars: 1 amine (or outer) side, 2 acyl side, 3 side chain; on linkers, the order of the positions; unused ones are H or OH. Bridge positions count the residues as written; N and C are the ends. Square brackets hold non-standard residues; d marks the D form. Peptide text beside a SMILES is read from it. * marks the point of attachment. hTyr(3S-OH,4S-OH,3'-OSO3H) = N[C@H](C(=O)O)[C@H](O)[C@@H](O)c1ccc(O)c(OS(=O)(=O)O)c1; Orn(4R-OH,5R-OH) = O=C([C@H](C[C@@H](O)[C@@H](O)N[*:3])N[*:1])[*:2]; Orn(4R-OH,5S-OH) = O=C([C@H](C[C@@H](O)[C@H](O)N[*:3])N[*:1])[*:2]; hTyr(3S-OH,4S-OH) = N[C@H](C(=O)O)[C@H](O)[C@@H](O)c1ccc(O)cc1; Pro(3S-OH,4S-Me) = C[C@H]1CN[C@H](C(=O)O)[C@H]1O; Benzoyl(4-octyloxy) = CCCCCCCCOc1ccc(C(=O)*)cc1; Gln(3R-OH) = NC(=O)C[C@@H](O)[C@H](N)C(=O)O; Palmitoyl = CCCCCCCCCCCCCCCC(=O)*; Hyp = O=C(O)[C@@H]1C[C@@H](O)CN1

What was measured:
Candida albicans [1] = test: Compound was tested for inhibitory activity against 1,3-beta-glucan synthase from Candida albicans 6406; type: functional
Cyberlindnera jadinii = test: In vitro antifungal activity against Candida utilis YC123 at 37 degrees C for 22h; type: functional, organism-based; conditions: Williopsis jadinii
Candida albicans [2] = test: In vitro antifungal activity against Candida albicans FP582 at 37 degrees C for 22h; type: functional, organism-based
Candida albicans [3] = test: In vivo effective dose for antifungal activity on sc administration in female mice infected with 2.5*10e6 cells/mL of Candida albicans at day 10; type: functional
Candida albicans [4] = test: In vitro antifungal activity against Candida albicans FP633 at 37 degrees C for 22h; type: functional, organism-based
Mus musculus = species on record: Mus musculus; test: Minimum lytic concentration that lysed red blood cells in mouse; type: functional
Pneumocystis carinii [5] = test: Evaluated for inhibitory growth of Pneumocystis carinii cysts in lungs administered at the dose of 10 mg/kg expressed as number of cysts/lungs for 3 weeks; type: functional
Candida albicans [6] = test: In vivo effective dose for antifungal activity on sc administration in female mice infected with 2.5*10e6 cells/mL of Candida albicans at day 14; type: functional
Pneumocystis carinii [7] = test: Evaluated for inhibitory growth of Pneumocystis carinii cysts in lungs administered at the dose of 10 mg/kg expressed as number of cysts/lungs for 8 weeks; type: functional
Pichia kudriavzevii = test: In vitro antifungal activity against Candida krusei YC109 at 37 degrees C for 22h; type: functional, organism-based
Aspergillus fumigatus = test: In vitro antifungal activity against Aspergillus fumigatus FD050 at 37 degrees C for 22h; type: functional, organism-based
Candida albicans [8] = test: In vitro antifungal activity against Candida albicans FP578 at 37 degrees C for 22h; type: functional, organism-based
Homo sapiens [9] = species on record: Homo sapiens; test: Lytic concentration for hemolytic activity in human by akaishi method; type: functional
Candida tropicalis = test: In vitro antifungal activity against Candida tropicalis YC118 at 37 degrees C for 22h; type: functional, organism-based
Homo sapiens [10] = species on record: Homo sapiens; test: Minimum lytic concentration that lysed red blood cells in human; type: functional
Candida albicans [11] = test: In vitro antifungal activity against Candida albicans FP629 at 37 degrees C for 22h; type: functional, organism-based
Cryptococcus neoformans [12] = test: In vitro antifungal activity against Cryptococcus neoformans YC203 at 30 degrees C for 48 hr; type: functional, organism-based
Aspergillus niger = test: In vitro antifungal activity against Aspergillus niger ATCC 9642 at 37 degrees C for 22h; type: functional, organism-based; conditions: ATCC 9642, 22 h
Candida albicans [13] = test: In vitro inhibitory concentration required for antifungal activity against Candida albicans FP578 at 37 degrees C for 22h; type: functional, organism-based
Cryptococcus neoformans [14] = test: In vitro inhibitory concentration degrees C for 48 hr; type: functional, organism-based

SMILES | IC50 (Candida albicans [1]) [µg/mL] | IC50 (Cyberlindnera jadinii) [µg/mL] | IC50 (Candida albicans [2]) [µg/mL] | ED50 (Candida albicans [3]) [mg/kg] | IC50 (Candida albicans [4]) [µg/mL] | MLC (Mus musculus) [µg/mL] | Activity (Pneumocystis carinii [5]) | ED50 (Candida albicans [6]) [mg/kg] | Activity (Pneumocystis carinii [7]) | IC50 (Pichia kudriavzevii) [µg/mL] | IC50 (Aspergillus fumigatus) [µg/mL] | IC50 (Candida albicans [8]) [µg/mL] | LC30 (Homo sapiens [9]) [µg/mL] | IC50 (Candida tropicalis) [µg/mL] | MLC (Homo sapiens [10]) [µg/mL] | IC50 (Candida albicans [11]) [µg/mL] | IC50 (Cryptococcus neoformans [12]) [µg/mL] | IC50 (Aspergillus niger) [µg/mL] | IC50 (Candida albicans [13]) [µg/mL] | IC50 (Cryptococcus neoformans [14]) [µg/mL]
C[C@@H]([C@H](N)C(=O)N[C@H](C(=O)O)[C@H]1O[C@@H](n2cc(C=O)nc2O)[C@H](O)[C@@H]1O)[C@H](O)c1ccc(O)cn1 | > 100 | – | – | – | – | – | – | – | – | – | – | – | – | – | – | – | – | – | – | –
CCCCCCCCCCCCCCCC(=O)N[C@H]1C[C@@H](O)[C@H](O)NC(=O)[C@@H]2[C@@H](O)[C@@H](C)CN2C(=O)[C@H]([C@H](O)CC(N)=O)NC(=O)[C@H]([C@H](O)[C@@H](O)c2ccc(O)c(OS(=O)(=O)O)c2)NC(=O)[C@@H]2C[C@@H](O)CN2C(=O)[C@H]([C@@H](C)O)NC1=O (Palmitoyl-[Orn(4R-OH,5S-OH)]T[Hyp][hTyr(3S-OH,4S-OH,3'-OSO3H)][Gln(3R-OH)][Pro(3S-OH,4S-Me)]; lactam 1-C) | 0.7 (≈ 0.596 µM) | 0.03 (≈ 0.0255 µM) | 0.004 (≈ 0.0034 µM) | 1.1 | 0.018 (≈ 0.0153 µM) | 31 (≈ 26.4 µM) | <1.8 | 2.9 | 2 | 0.14 (≈ 0.119 µM) | 1.3 (≈ 1.11 µM) | 0.025 (≈ 0.0213 µM) | 160 (≈ 136 µM) | 0.09 (≈ 0.0766 µM) | 31 (≈ 26.4 µM) | 0.018 (≈ 0.0153 µM) | > 2.5 | 0.004 (≈ 0.0034 µM) | – | –
C[C@@H]1[C@H](O)[C@@H](C)/C=C/C=C/C=C/C=C/C=C/C=C/C=C/[C@H](O[C@@H]2O[C@H](C)[C@@H](O)[C@H](N)[C@@H]2O)C[C@@H]2O[C@](O)(C[C@@H](O)C[C@@H](O)[C@H](O)CC[C@@H](O)C[C@@H](O)CC(=O)O[C@H]1C)C[C@H](O)[C@H]2C(=O)O [AMPHOTERICIN B] | – | 0.47 (≈ 0.509 µM) | 0.55 (≈ 0.595 µM) | – | 0.39 (≈ 0.422 µM) | – | – | – | – | 1.6 (≈ 1.73 µM) | 0.62 (≈ 0.671 µM) | – | – | 0.62 (≈ 0.671 µM) | – | 0.39 (≈ 0.422 µM) | 0.39 (≈ 0.422 µM) | 1.9 (≈ 2.06 µM) | 0.39 (≈ 0.422 µM) | –
CCCCCCCCOc1ccc(C(=O)N[C@H]2C[C@@H](O)[C@@H](O)NC(=O)[C@@H]3[C@@H](O)[C@@H](C)CN3C(=O)[C@H]([C@@H](C)O)NC(=O)[C@H]([C@H](O)[C@@H](O)c3ccc(O)cc3)NC(=O)[C@@H]3C[C@@H](O)CN3C(=O)[C@H]([C@@H](C)O)NC2=O)cc1 [CILOFUNGIN] ({Benzoyl(4-octyloxy)}-[Orn(4R-OH,5R-OH)]T[Hyp][hTyr(3S-OH,4S-OH)]T[Pro(3S-OH,4S-Me)]; lactam 1-C) | – | 0.94 (≈ 0.912 µM) | 0.24 (≈ 0.233 µM) | 5 | 0.39 (≈ 0.379 µM) | > 500 | – | > 10 | – | 3.2 (≈ 3.11 µM) | > 0.003 | – | > 500 | 0.94 (≈ 0.912 µM) | > 1000 | 0.47 (≈ 0.456 µM) | – | 0.08 (≈ 0.0777 µM) | 0.36 (≈ 0.349 µM) | > 2.5
COc1cc(Cc2cnc(N)nc2N)cc(OC)c1OC.Cc1cc(NS(=O)(=O)c2ccc(N)cc2)no1 [CO-TRIMOXAZOLE] | – | – | – | – | – | – | <1.8 | – | 4.1 | – | – | – | – | – | – | – | – | – | – | –
OC(Cn1cncn1)(Cn1cncn1)c1ccc(F)cc1F [FLUCONAZOLE] | – | – | – | < 1 | – | – | – | 2.4 | – | – | – | – | – | – | – | – | – | – | – | –
CCCCCCCCOc1ccc(C(=O)N[C@H]2C[C@@H](O)[C@H](O)NC(=O)[C@@H]3[C@@H](O)[C@@H](C)CN3C(=O)[C@H]([C@H](O)CC(N)=O)NC(=O)[C@H]([C@H](O)[C@@H](O)c3ccc(O)c(OS(=O)(=O)[O-])c3)NC(=O)[C@@H]3C[C@@H](O)CN3C(=O)[C@H]([C@@H](C)O)NC2=O)cc1.[Na+] [FR-131535] ({Benzoyl(4-octyloxy)}-[Orn(4R-OH,5S-OH)]T[Hyp][hTyr(3S-OH,4S-OH,3'-OSO3H)][Gln(3R-OH)][Pro(3S-OH,4S-Me)]; lactam 1-C) | 2.8 | 1.35 | 0.39 | 3 | 0.47 | > 500 | <1.8 | 3.5 | 2.3 | 1.9 | < 0.003 | 0.31 | > 500 | 0.47 | > 1000 | 0.47 | > 2.5 | 0.16 | – | –
